Laboratory results taken from US12371453B2, “Polypeptide having antibacterial activity, composition for preventing or treating sepsis comprising same, and antibacterial composition” (priority 2019, dated 2025).
Read-outs that look alike come from different tables or passages of the source. Ends that are not written are not given here.

Columns and labels:
CR-Klebsiella pneumoniae = system: CR-Klebsiella pneumoniae
Procedure: (§1) The antibacterial activity was evaluated according to an antibacterial activity test method for measuring the minimum inhibitory concentration 50 (MIC50; the minimal concentration that kills 50% of bacteria).
(§2) More specifically, 100 μL of a medium was dispensed into each well of a 96-well plate, and in the first column, an antibiotic and a peptide in 200 μL of the medium were dispensed. 1/2 serial dilution was performed from columns 1 to 11 and five types of antibiotic-resistant bacteria (ESBL-resistant E. coli, carbapenem-resistant A. baumannii, carbapenem-resistant Klebsiella pneumoniae, carbapenem-resistant Pseudomonas aeruginosa, colistin-resistant Acinetobactor baumannii), which had been previously cultured, were diluted (OD600 nm value in dilution: approximately 0.0025) and dispensed into each well. The plate was incubated in a 37° C. incubator for 4 hours, and measured at OD600 nm.

[1] = system: Colistin resistant AB (Acinetobactor baumannii)
Procedure: as §1, §2

ESBL (E. coli) = system: ESBL (E. coli)
Procedure: as §1, §2

[2] = system: Carbapenem resistant (CR)-Acinetobactor baumannii; assay: organism not typed
Procedure: as §1, §2

[3] = LPS binding affinity by Isothermal Titration Calorimeter (ITC); parameters: species or system E. coli K1; details: for LPS binding affinity (in words): compared with FP1 (wild type, WT); for Kd: peptide binding to LPS, read-out: Kd (calculated by ITC)
Excerpt: FPT (ADK 44-54) is denoted by wild type (WT), and peptides in which a point mutation occurred at various sites in WT were manufactured (FP3, FP5, FP6, and FP9). To increase the interaction with LPS in a residue sequence of FP3, peptides were designed based on FP3- and LPS-binding models (FP12-NH2 and FP13-NH2), and peptides were designed by additionally introducing a non-natural amino acid and an amino acid isomer (allomeric D-type amino acid) (allD FP12-NH2, allD FP13-NH2, allD FP-13-9a, allD FP-13-9w, allD FP-13-9k, and allD FP13-NH2 (AcOH)). In addition, an N-terminus PEGylated peptide (PEG-alld FP13-NH2 (AcOH)) was additionally designed, synthesized, and provided by ANYGEN, Co. Ltd. The binding affinity between each of the provided peptides and lipopolysaccharide (LPS) was confirmed through measuring the binding affinity (Kd) using Isothermal Titration Calorimeter (ITC).
Specifically, a method of analyzing binding affinity (Kd) between a peptide and LPS is as follows.
Measurement was carried out using a Malvern MicroCal PEAQ-ITC cell instrument, and the following pretreatment was carried out to confirm interaction with LPS. The amount and morphology of a sample cell are 300 μL and coin-shaped, fixed-in-place, respectively; a syringe rotation rate was 1,200 rpm; and a temperature was 30° C., 35° C. or 25° C.
Before the experiment, LPS and the peptide were previously diluted with PBS, thereby preparing 2 mM LPS and 0.2 mM peptide. 300 μL of the peptide was added into cells in the ITC instrument, which had been washed, and 40 μL of LPS was put into a syringe. After measurement conditions for ITC (temperature, number of injections) were set, the syringe was inserted into the cell, and ITC measurement was started. When the measurement was completed, analysis is performed, and the Kd values of LPS and the peptide were calculated.

[4] = system: Acinetobacter baumannii (ATCC 19606); assay: microbe, parasite or virus in culture; details: Acinetobacter baumannii ATCC 19606
Procedure: (§3) To compare the antibacterial activity between the four commercially available antibiotics (ampicillin, gentamicin, levofloxacin and imipenem) and the allD FP13-NH2 (AcOH) peptide, an antibacterial activity test was performed to measure the minimum inhibitory concentrations (MIC50 and MIC80) for gram-negative and gram-positive standard strains (Escherichia coli DH5α, Escherichia coli K1, Acinetobacter baumannii, Pseudomonas aeruginosa, Salmonella enteritidis, Salmonella typhimurium, and Klebsiella pneumoniae).
(§4) More specifically, 100 μL of a medium was dispensed into each well of a 96-well plate, and in the first column, an antibiotic and a peptide in 200 μL of the medium were dispensed. 1/2 serial dilution was performed from columns 1 to 11, and gram-negative and gram-positive bacteria which had been previously cultured were diluted (OD600 nm value in dilution: approximately 0.0025) and dispensed into each well. The plate was incubated in a 37° C. incubator for 4 hours, and measured at OD600 nm.

[5] = system: Escherichia coli DH5α (ATCC PTA-4750); assay: microbe, parasite or virus in culture; details: Escherichia coli DH5α, 4 hours
Procedure: as §3, §4

Escherichia coli K1 = assay: microbe, parasite or virus in culture; details: Escherichia coli K1
Procedure: as §3, §4

[6] = system: Klebiella pneumoniae (ATCC 13883); assay: microbe, parasite or virus in culture; details: Klebsiella pneumoniae ATCC 13883
Procedure: as §3, §4

[7] = system: Pseudomanas aeruginosa PAO1 (ATCC 47085D-5); assay: microbe, parasite or virus in culture; details: Pseudomonas aeruginosa PAO1
Procedure: as §3, §4

[8] = system: Salmonela enteritidis (ATCC 13076); assay: microbe, parasite or virus in culture; details: Salmonella enteritidis ATCC 13076
Procedure: as §3, §4

[9] = system: Salmonela typhimurium (ATCC 53648); assay: microbe, parasite or virus in culture; details: Salmonella typhimurium ATCC 53648
Procedure: as §3, §4

KLRVKLRRYLR [FP13]
MIC50, CR-Klebsiella pneumoniae (CR-Klebsiella pneumoniae; CR-): <62 µg/mL
MIC50, Colistin resistant AB [1]: <62 µg/mL
MIC50, ESBL (E. coli) (ESBL (E. coli); ESBL): <2 µg/mL
MIC50, Carbapenem resistant (CR)-Acinetobactor baumannii [2]: <16 µg/mL

LRLGVEAKRYLR [FP5]
LPS binding affinity (in words) [3]: strong LPS binding affinity
Kd [3]: 854 µM

LRLGVELKRYLR [FP6]
LPS binding affinity (in words) [3]: strong LPS binding affinity
Kd [3]: 11.1 µM

PEG-KLRVKLRRYLR-NH2 [PEG-alld FP13-NH2 (AcOH)]
Kd [3]: 17.5 µM

RLRVKLRRYLR [FP12]
MIC50, CR-Klebsiella pneumoniae (CR-Klebsiella pneumoniae; CR-): <62 µg/mL
MIC50, Colistin resistant AB [1]: <125 µg/mL
MIC50, ESBL (E. coli) (ESBL (E. coli); ESBL): <2 µg/mL
MIC50, Carbapenem resistant (CR)-Acinetobactor baumannii [2]: <16 µg/mL

colistin [reference compound]
MIC50, CR-Klebsiella pneumoniae (CR-Klebsiella pneumoniae; CR-K. pneumoniae): <125 µg/mL
MIC50, Colistin resistant AB ([1]; colistin resistant A. baumannii): No effect
MIC50, ESBL (E. coli) (ESBL (E. coli); ESBL E. coli): <0.5 µg/mL
MIC50, Carbapenem resistant (CR)-Acinetobactor baumannii ([2]; CR-A. baumannii): <1 µg/mL

gentamicin
MIC (μg/ml) 50% ([4]; 50% growth inhibition): <1.0 µg/mL
MIC (μg/ml) 80% ([4]; 80% growth inhibition): <2.0 µg/mL
MIC (μg/ml) 50% ([5]; 50% growth inhibition): <0.5 µg/mL
MIC (μg/ml) 80% ([5]; 80% growth inhibition): <1.0 µg/mL
MIC (μg/ml) 50% (Escherichia coli K1; 50% growth inhibition): <0.5 µg/mL
MIC (μg/ml) 80% (Escherichia coli K1; 80% growth inhibition): <1.0 µg/mL
MIC (μg/ml) 50% ([6]; 50% growth inhibition): <0.5 µg/mL
MIC (μg/ml) 80% ([6]; 80% growth inhibition): <1.0 µg/mL
MIC (μg/ml) 50% ([7]; 50% growth inhibition): <0.5 µg/mL
MIC (μg/ml) 80% ([7]; 80% growth inhibition): <1.0 µg/mL
MIC (μg/ml) 50% ([8]; 50% growth inhibition): <0.5 µg/mL
MIC (μg/ml) 80% ([8]; 80% growth inhibition): <1.0 µg/mL
MIC (μg/ml) 50% ([9]; 50% growth inhibition): <0.5 µg/mL
MIC (μg/ml) 80% ([9]; 80% growth inhibition): <1.0 µg/mL

klrvklrralr-NH2 [allD FP-13-9a-NH2]
LPS binding affinity (in words) [3]: strong LPS binding affinity
Kd [3]: 9.54 µM

klrvklrrklr-NH2 [allD FP-13-9k-NH2]
LPS binding affinity (in words) [3]: strong LPS binding affinity
Kd [3]: 1.99 µM
